Values quoted from earlier work, collected in publication PMC6256996, “Natural products as new antimitotic compounds for anticancer drug development” (Clinics, 2018).
Read-outs that look alike come from different tables or passages of the source.

Assays:
HL60 = system: HL60; set-up: method as in doi:10.2174/1570180814666171012162557; conditions: for SI PBMC/HL-60: cytotoxic selectivity index, IC50 for PBMCs/cancer cell line
OVCAR-8 = system: OVCAR-8; set-up: method as in doi:10.2174/1570180814666171012162557; conditions: for SI PBMC/OVCAR-8: cytotoxic selectivity index, IC50 for PBMCs/cancer cell line
HCT-8 = system: HCT-8; set-up: method as in doi:10.2174/1570180814666171012162557; conditions: for SI PBMC/HCT-8: cytotoxic selectivity index, IC50 for PBMCs/cancer cell line
[1] = system: peripheral blood mononuclear cells (PBMCs); set-up: method as in doi:10.2174/1570180814666171012162557; conditions: 72h of treatment; mean±SEM
K562 cells = system: K562 cells; set-up: method as in PMID 15787450, doi:10.1007/s11418-006-0118-3; conditions: 48-hour incubation
HL-60 cells [2] = system: HL-60 cells; set-up: method as in PMID 16316665; conditions: 3 hours
HL-60 cells [3] = system: HL-60 cells; set-up: method as in PMID 16316665
HL-60 cells [4] = system: HL-60 cells; set-up: method as in PMID 16316665; conditions: lowest treatment concentration (3.97 μmol.L^-1)

IC50 (HL60; 72h of treatment, mean±SEM, read-out: HL60 (mean IC50±SEM)) [nM]	IC50 (OVCAR-8; 72h of treatment, mean±SEM, read-out: OVCAR-8 (mean IC50±SEM)) [nM]	IC50 (HCT-8; 72h of treatment, mean±SEM, read-out: HCT-8 (mean IC50±SEM)) [nM]	IC50 (HL60; read-out: IC50 in HL-60 tumor cell line) [nM]	IC50 (OVCAR-8; read-out: IC50 in OVCAR-8 tumor cell line) [nM]	IC50 (HCT-8; read-out: IC50 in HCT-8 tumor cell line) [nM]	Compound	SI PBMC/HL-60 (HL60; 72h of treatment)	SI PBMC/OVCAR-8 (OVCAR-8; 72h of treatment)	SI PBMC/HCT-8 (HCT-8; 72h of treatment)	IC50 [1] [nM]	IC50, proliferation of K562 cells (K562 cells) [µg/mL]	Inhibition of BrdU incorporation during the S phase (HL-60 cells [2]; 3.97 μmol.L^-1) [%]	Inhibition of BrdU incorporation during the S phase (HL-60 cells [2]; 7.95 μmol.L^-1) [%]	Inhibition of BrdU incorporation during the S phase (HL-60 cells [2]; 15.9 μmol.L^-1) [%]	Cells with DNA fragmentation (HL-60 cells [3]; HL-60 cells permeabilized with Triton X-100, 24-hour treatment, 3.97, 7.95 and 15.9 μmol.L^-1) [%]	Cell cycle arrest (DNA content) (HL-60 cells [3]; HL-60 cells, 15.9 μmol.L^-1)	Membrane damage (HL-60 cells [3]; HL-60 cells, 24-hour treatment, 3.97, 7.95 and 15.9 μmol.L^-1)	HL-60 cell population with depolarized mitochondria (HL-60 cells [4]) [%]
						COc1ccc(/C=C\c2cc(OC)c(OC)c(OC)c2)cc1O [CA-4, combretastatin A-4, reference compound]	1.45	6.40	0.60	3.2								
						COc1ccc2c(c1)O[C@@H]1c3cc(OC)c(OC)cc3OC[C@H]21 [(+)2,3,9-trimethoxypterocarpan, (+)2,3,9-Trimethoxypterocarpan]					0.8	37	38	56	~50	arrested at the G2/M phase transition	no significant membrane damage	38.6
290 ± 1.2	290 ± 40	450 ± 81				COc1cc(C(=O)N/N=C/c2ccccc2)cc(OC)c1OC [LASSBio-1586]	4.60	4.60	3.0	1340 ± 65								
			0.3	9	5	COc1cc(C(=O)N/N=C/c2cc3ccccc3s2)cc(OC)c1OC [LASSBio-1920]	333.30	11.11	20.0	100 ± 11								
